Assay results from ChEMBL document CHEMBL5647692, “The novel dual PI3K/mTOR inhibitor NVP-BGT226 displays cytotoxic activity in both normoxic and hypoxic hepatocarcinoma cells” (Oncotarget, 2015).
The source made the active and inactive calls.

Legend:
Mahlavu [1] = assay: Induction of apoptosis in human Mahlavu cells assessed as cleaved PARP level at 0.5 uM incubated for 24 hrs by Western blotting analysis; type: functional, cell-based
SNU-449 = assay: Induction of apoptosis in human SNU-449 cells assessed as necrotic cells at 1.5 uM incubated for 24 hrs by Annexin-V/7-AAD staining based muse cell analyzer method (reference value: 0.95 %); type: functional
SNU-475 = assay: Induction of autophagy in human SNU-475 cells assessed as increase in lipidation of LC3A/B II level at 0.5 uM incubated for 24 hrs in presence of chloroquine by Western blot analysis; type: functional, cell-based
Hep 3B2 = assay: Cytotoxicity against human Hep3B cells assessed as reduction in cell viability at 0.5 uM incubated for 24 hrs in presence of 3-Methyladenine by MTT assay; type: functional, cell-based
HepG2 = assay: Cytotoxicity against human HepG2 cells assessed as reduction in cell viability at 0.5 uM incubated for 24 hrs in presence of 3-Methyladenine by MTT assay; type: functional, cell-based
[2] = Inhibition of PI3K/Akt/mTOR signaling pathway in human Mahlavu cells assessed as reduction in phosphorylation of GSK3 alpha/beta incubated for 1 hr under normoxia condition by Western blotting analysis; type: cell-based; settings: dose 0.25-1 µM
[3] = Inhibition of PI3K/Akt/mTOR signaling pathway in human Hep3B cells assessed as reduction in phosphorylation of Akt incubated for 1 hr under normoxia condition by Western blotting analysis; type: cell-based; settings: dose 0.25-1 µM
[4] = Inhibition of PI3K/Akt/mTOR signaling pathway in human HepG2 cells assessed as reduction in phosphorylation of Akt incubated for 1 hr under normoxia condition by Western blotting analysis; type: cell-based; settings: dose 0.25-1 µM
[5] = Inhibition of PI3K/Akt/mTOR signaling pathway in human SNU-475 cells assessed as reduction in phosphorylation of Akt at 1 to 10 nM incubated for 1 hr under normoxia condition by Western blotting analysis; type: cell-based; settings: dose 1-10 nM
Mahlavu [6] = assay: Induction of autophagy in human Mahlavu cells assessed as decreased expression of SQSTM1/p62 level incubated for 24 hrs under hypoxia condition by Western blot analysis; type: functional, cell-based; settings: dose 0.1-0.5 µM
Mahlavu [7] = assay: Cytotoxicity against human Mahlavu cells assessed as reduction in cell viability at 0.5 uM incubated for 24 hrs in presence of chloroquine under hypoxia condition by MTT assay; type: functional, cell-based

COc1ccc(-c2ccc3ncc4c(c3c2)n(-c2ccc(N3CCNCC3)c(C(F)(F)F)c2)c(=O)n4C)cn1 [BGT-226 FREE BASE]
active: Activity (Mahlavu [1]) | Activity (SNU-475) | Activity (Hep 3B2) | Activity (HepG2) | inhibition [2] Dose-Dependent Effect | inhibition [3] Dose-Dependent Effect | inhibition [4] Dose-Dependent Effect | inhibition [5] | Activity (Mahlavu [6]) Dose-Dependent Effect | Activity (Mahlavu [7])
1.02%: Activity (SNU-449)
